According to patent US7259265B2, “Coumarin compounds and method for preparing and using the same” (Shanghai Institute of Organic Chemistry, Chinese Academy of …, priority 2003, dated 2007):
Converted amounts (≈) assume the structure as drawn. Where two headings read alike, the source gives them in different places.

What was measured:
[1] = system: candida Albicans; test: Inhibiting zone on candida Albicans; assay type: cell-based; conditions: at the concentration of 10 μg/ml
Experimental: [drawing 30] was tested by Jiangsu Hengrui Pharmaceutical Co., Ltd. The bioactivity against fungal infection of various antibiotics were tested.

[2] = system: candida Albicans 02-6; test: In vivo protective test in infected mice; conditions: for ED50: infection 2.07 × 10^4 CFU/ml; for Survival: 10 mice, within 7 days after infection
Experimental: 2˜3 monocolonies of selected tested fungus were inoculated in Sabouraud liquor culture medium, which was cultured for 18 hours at 37° C., and then it was diluted with 5% sterilized dried yeast liquor for next uses.
3. Healthy mice (lived in Kunming, China) weighed 18˜22 g were divided into groups randomly with 5 mice in each group. The fungal liquor 0.5 ml was injected into a mouse, which was observed continuously for 7 days after infection. Mortality of the mice was recorded, and the minimum fungal dose that caused the mice be with a 100% mortality was named as MLD, which also was regarded as infection fungal dose in vivo protective test.
All test drugs were confected to requested concentration with 0.5% CMC including Fluoroconazole and 4,4′-biisofraxidin.
Test mice were divided into groups randomly according to gender and weight, 5 males and 5 females in each group. The infection fungal liquor 0.5 ml was injected into each mouse at the abdominal region at 0.5 ml per mouse. Two hours prior to the infection and 4 hours after infection, mice were orally administered with Fluoroconazole or 4,4′-biisofraxidin by intragastric gavage at various concentration. The comparative group was tested at the same time. Mortality was recorded within 7 days after infection, and effective dosage at half (median effective dose, ED50) and 95% confidence limit were calculated by the Bliss's method. Fluoroconazole and 4,4′-biisofraxidin were tested on their in vivo protection activity on candida Albicans 02-6 infected mice, and ED50 was calculated by the Bliss's method at 95% confidence limit.

[3] = system: Aspergillus niger; test: In vitro drug sensitivity MIC test; assay type: cell-based
Experimental: (§1) The tested fungi were confected to a suspension with normal saline, and further diluted to a suspension with the turbidity of more than 2.0 McFarland Standards (McF). Then, the suspension was diluted 100 times with normal saline, and diluted 10 times with RPMI1640, and the sample was diluted 2 times, which was cultured for 72 to 96 hours at a 96-well culture dish while being gently agitated and assayed for photoelectric colorimetric assay at 490 nm.
(§2) Tested fungi include Saccharomyces, candida Albicans 01-5, 01-1, 02-6, candida Albicans CMCC, Aspergillus niger, Cryptococcus neoformans, Trichophyton rubrum, and Trichophyton verrucosum and MIC Results were listed at Table 2.

[4] = system: Cryptococcus neoformans; test: In vitro drug sensitivity MIC test; assay type: cell-based
Experimental: as §1, §2

[5] = system: Saccharomyces; test: In vitro drug sensitivity MIC test; assay type: cell-based
Experimental: as §1, §2

[6] = system: Trichophyton rubrum; test: In vitro drug sensitivity MIC test; assay type: cell-based
Experimental: as §1, §2

[7] = system: Trichophyton verrucosum; test: In vitro drug sensitivity MIC test; assay type: cell-based
Experimental: as §1, §2

[8] = system: candida Albicans 01-1; test: In vitro drug sensitivity MIC test; assay type: cell-based
Experimental: as §1, §2

[9] = system: candida Albicans 01-5; test: In vitro drug sensitivity MIC test; assay type: cell-based
Experimental: as §1, §2

[10] = system: candida Albicans 02-6; test: In vitro drug sensitivity MIC test; assay type: cell-based
Experimental: as §1, §2

[11] = system: candida Albicans CMCC; test: In vitro drug sensitivity MIC test; assay type: cell-based
Experimental: as §1, §2

[12] = system: candida Albicans; test: In vitro drug sensitivity MIC test; assay type: cell-based
Experimental: as §1, §2

[13] = system: S. Typhimurium TA97, TA98, TA 100, and TA102; test: Bacteria reverse mutation test; assay type: cell-based; conditions: without S9
Experimental: According to the conditions of mutation test in the Guide Compilation of New Medicament (Western Medicament) Before Clinic (Pharmacy, Pharmacology, and Toxicology) (Edition July 1993, Bureau of Pharmaceutical Policy, Chinese Department of Health), 4,4′-biisofraxidin was tested at a dosage of 5, 50, 500, 1000, and 5000 μg/dish in the system without S9.

[14] = system: CHL cell; test: Chromosome aberration test of CHL mammal cell; assay type: cell-based; conditions: for mutagenicity: 24 hours, -S9
Experimental: The purpose of the Example was to assess whether 4,4′-biisofraxidin caused the chromosome aberration of CHL cell. Firstly, Median Inhibitory Concentration (IC50) was obtained by general method and regarded as the maximum dosage. Then, the maximum dosage was diluted at 0.5 time at multiple times to get three dosage groups. The experiment was conducted at a —S9 system (without hamster liver S9 system). […] The antifungal compound was added to the cultured cell directly for 24 hours in order to observe whether 4,4′-biisofraxidin caused chromosome aberration in CHL cell. […] Therefore, 4,4′-biisofraxidin was a weak mutagen at a relatively high dosage under the test conditions.

[15] = system: mice medulla polychromatic erythrocyte; test: Micronucleus test of mice medulla; assay type: in vivo, ICR mice
Experimental: Seventy ICR mice were randomly divided into 7 groups with 10 mice per group having 5 males and 5 females in each group. The maximum tolerance dose (MTD) of the mice was more than 5000 mg/kg for 4,4′-biisofraxidin by intragastric gavage, so that the maximum dosage was 5000 mg/kg. Four dosage groups were set up with dosage amount of 5000, 2500, 1250, and 625 mg/kg, one negative and one positive control group. The intragastric gavage was carried out at once per day consecutively for 2 days. Samples were taken at 24 hours after the last intragastric administration and inspected under microscope.

[16] = Acute toxicity test, oral, ICR mice (Example 22); conditions: for mortality: single oral dose (5 g/kg for 4,4′-biisofraxidin)
Text: Acute toxicity of 4,4′-biisofraxidin and Fluoconazole were simultaneously evaluated and the toxicity reaction and mortality were observed and compared for values of LD50 for ICR mice which were orally administered with 4,4′-biisofraxidin or Fluoconazole.

[17] = Acute toxicity test in vivo in mice (Example 21); conditions: for death: after testing 14 days, 14 mice (4,4′-biisofraxidin), 4 mice (Fluoroconazole)
[18] = Comparison of liver toxicity, serum ALT/AST of ICR mice; assay type: in vivo; conditions: 1.6 g/kg oral, mean (values of each sample)
Experimental: ICR mice were orally administered with 4,4′-biisofraxidin or Fluoconazole at the same dosage of 1.6 g/kg, and blood samples were taken at 4 hours and 24 hours after the administration, and serum was separated from blood samples for testing liver indices of asparate aminotransferase test (AST) and alanine aminotransferase test (ALT).

[19] = drug dose 65.5 mg/kg, intragastric gavage
[20] = drug dose 89.2 mg/kg, intragastric gavage
[21] = drug dose 102.4 mg/kg, intragastric gavage
[22] = drug dose 128 mg/kg, intragastric gavage
[23] = drug dose 160 mg/kg, intragastric gavage
[24] = drug dose 200 mg/kg, intragastric gavage
[25] = candida Albicans, second strain without code (r8)

4,4′-biisofraxidin
inhibiting zone [1]: 10 mm | 95% confidence limit of ED50 ([2]; Bliss's method): (127.97–130.7) mg/kg | ED50 ([2]; Bliss's method, intragastric gavage): 149.50 mg/kg | Survival rate (%) [2, 19]: 0% | Survival [2, 19]: 0 | Survival rate (%) [2, 20]: 10% | Survival [2, 20]: 1 | Survival rate (%) [2, 21]: 20% | Survival [2, 21]: 3 | Survival rate (%) [2, 22]: 40% | Survival [2, 22]: 4 | Survival rate (%) [2, 23]: 60% | Survival [2, 23]: 6 | Survival rate (%) [2, 24]: 70% | Survival [2, 24]: 7 | protective effect in vivo ([2]; intragastric gavage): obvious protective effect | MIC [3]: 128 µg/mL | MIC [4]: 64 µg/mL | MIC [5]: >128 µg/mL | MIC [6]: 16 µg/mL | MIC [7]: 128 µg/mL | MIC ([8]; candida Albicans 01-1): 64 µg/mL | MIC ([9]; candida Albicans 01-5): 64 µg/mL | MIC [10]: 32 µg/mL | MIC [11]: >128 µg/mL | MIC ([12]; candida Albican, summary in the conclusion): ≥ 128 µg/mL | MIC ([12]; candida Albicans, first strain without code (r7)): 64 µg/mL | MIC [12, 25]: >128 µg/mL | effect on growth of bacteria ([13]; high dose 5000 μg/dish): inhibit the growth | gene mutation ([13]; other dosages): couldn't induce gene mutation | effect on growth of bacteria ([13]; other four doses (5, 50, 500, 1000 μg/dish)): no obvious effect | Median Inhibitory Concentration (IC50) ([14]; CHL cell): 248 µg/mL | mutagenicity ([14]; high dosage 248 μg/ml): 12% | mutagenicity ([14]; low to medium dosage (62, 124 μg/ml)): 1% | chromosome aberration conclusion ([14]; relatively high dosage): weak mutagen | micronucleus number ([15]; 5000, 2500, 1250, 625 mg/kg, intragastric, once per day for 2 days, 24 hours after last dose): no effect on inducing increase in micronucleus number | maximum tolerance dose (MTD) ([15]; mice, intragastric gavage): more than 5000 mg/kg | toxicity reaction ([16]; single oral dose): no obvious toxicity reaction | mortality [16]: 0/10 | MTD ([16]; single oral dose, 14 days observation): higher than 5 g/kg | death [17]: no death | MTD ([17]; mice, 14 days): more than 5 g/kg | half lethal dose (LD50) ([17]; mice, 14 days): undetectable

OC(Cn1cncn1)(Cn1cncn1)c1ccc(F)cc1F [Fluoroconazole, reference compound]
ED50 ([2]; Candida albicans, Bliss's method, intragastric gavage, read-out: ED50): 136 mg/kg | Survival rate (%) [2, 19]: 0% | Survival [2, 19]: 0 | Survival rate (%) [2, 20]: 20% | Survival [2, 20]: 2 | Survival rate (%) [2, 21]: 40% | Survival [2, 21]: 4 | Survival rate (%) [2, 22]: 40% | Survival [2, 22]: 4 | Survival rate (%) [2, 23]: 60% | Survival [2, 23]: 6 | Survival rate (%) [2, 24]: 80% | Survival [2, 24]: 8 | MIC [3]: > 128 µg/mL | MIC ([4]; read-out: MIC): 16 µg/mL (≈ 52.2 µM) | MIC ([5]; read-out: MIC): 64 µg/mL (≈ 209 µM) | MIC ([6]; read-out: MIC): 16 µg/mL (≈ 52.2 µM) | MIC [7]: 128 µg/mL (≈ 418 µM) | MIC ([8]; Candida albicans): 128 µg/mL (≈ 418 µM) | MIC ([9]; Candida albicans): 128 µg/mL (≈ 418 µM) | MIC ([10]; read-out: MIC): 64 µg/mL (≈ 209 µM) | MIC ([11]; read-out: MIC): 64 µg/mL (≈ 209 µM) | MIC ([12]; Candida albicans): > 128 µg/mL | MIC [12, 25]: >128 µg/mL | toxicity reaction ([16]; single oral dose): dispirited and inert | mortality [16]: 2/4 | ALT (U/L) ([18]; 4 hours after treatment): 84.5 (87, 82) U/L | AST (U/L) ([18]; 4 hours after treatment): 189.5 (155, 224) U/L | ALT (U/L) ([18]; 24 hours after treatment): 53.5 (40, 67) U/L | AST (U/L) ([18]; 24 hours after treatment): 99 (73, 125) U/L | LD50 at 14 days ([17]; ICR, mouse, in vivo, 1.6 g/kg): ~1600 mg/kg | death [17]: 2 | toxicity relative to 4,4′-biisofraxidin ([17]; mouse, in vivo): three times larger
